From patent US9051317B2, “Azaindoles as respiratory syncytial virus antiviral agents” (JANSSEN SCIENCES IRELAND UC, priority 2010, dated 2015)
Read-outs that look alike come from different tables or passages of the source.

What was measured:
[1] = test system: rgRSV224 virus; assay: microbe, parasite or virus in culture; assay type: cell-based, respiratory syncytial virus (RSV); settings: for EC50: read-out: WT activity EC50; for SI CC50/EC50: selectivity index, CC50 (HeLa cytotoxicity) / EC50 (rgRSV224)
Procedure: (§1) Black 96-well clear-bottom microtiter plates (Corning, Amsterdam, The Netherlands) were filled in duplicate using a customized robot system with serial 4-fold dilutions of compound in a final volume of 50 μl culture medium [RPMI medium without phenol red, 10% FBS, 0.04% gentamycin (50 mg/mL) and 0.5% DMSO]. Then, 100 μl of a HeLa cell suspension (5×10^4 cells/mL) in culture medium was added to each well followed by the addition of 50 μl rgRSV224 (MOI=0.02) virus in culture medium using a multidrop dispenser (Thermo Scientific, Erembodegem, Belgium). rgRSV224 virus is an engineered virus that includes an additional GFP gene (Hallak et al, 2000) and was in-licensed from the NIH (Bethesda, Md., USA). Medium, virus- and mock-infected controls were included in each test. Cells were incubated at 37° C. in a 5% CO2 atmosphere. Three days post-virus exposure, viral replication was quantified by measuring GFP expression in the cells by a MSM laser microscope (Tibotec, Beerse, Belgium). The EC50 was defined as the 50% inhibitory concentration for GFP expression. In parallel, compounds were incubated for three days in a set of white 96-well microtitier plates (Corning) and the cytotoxicity of compounds in HeLa cells was determined by measuring the ATP content of the cells using the ATPlite kit (PerkinElmer, Zaventem, Belgium) according to the manufacturer's instructions. The CC50 was defined as the 50% concentration for cytotoxicity.

[2] = Cytotoxicity in HeLa cells, ATP content (ATPlite kit); assay type: cell-based; settings: human, Table 1, three days incubation, read-out: Toxicity CC50
Procedure: as §1

[3] = Table 2, rgRSV224 in HeLa cells, MOI 0.02, three days post-virus exposure, GFP expression
[4] = human respiratory syncytial virus, HeLa, 72 h

Row | SMILES | EC50 [1, 3] | SI CC50/EC50 ([1]; Table 2) | EC50 [1, 4] | CC50 at 3 days [2] | SI CC50/EC50 ([1]; Table 3)
1 | O=c1n(Cc2cc3cc(Cl)ncc3n2CCCC(F)(F)F)c2cc(F)ccc2n1CC(F)(F)F [Compound P14] | 17.2 nM | >5823 | – | – | –
2 | O=c1n(Cc2cc3cnccc3n2CCCCO)c2cnccc2n1C1CC1 [Compound P1, 1-Cyclopropyl-3-{[1-(4-hydroxybutyl)-1H-pyrrolo[3,2-c]pyridin-2-yl]methyl}-1,3-dihydro-2H-imidazo[4,5-c]pyridin-2-one] | – | – | 1.05 nM | > 98400 nM | –
3 | CC(C)CCn1c(Cn2c(=O)n(C3COC3)c3ccncc32)cc2nc(Cl)ccc21 [Compound P34] | 35 nM | >2856 | – | – | –
4 | O=c1n(Cc2cc3nc(Cl)ccc3n2CCCCO)c2cnccc2n1CC(F)(F)F [Compound P50] | 10.1 nM | >4946 | – | – | –
5 | O=c1n(Cc2c(Cl)c3cnccc3n2CCCC(F)(F)F)c2cnccc2n1C1CC1 [Compound P22] | 5 nM | >20007 | – | – | –
6 | CS(=O)(=O)CCCn1c(Cn2c(=O)n(CC(F)(F)F)c3ccc(F)cc32)c(Br)c2cnccc21 [Compound P29] | 63.5 nM | 307 | – | – | –
7 | O=c1n(Cc2cc3nc(O)ccc3n2CCCCO)c2cnccc2n1C1CC1 [Compound P8, 1-Cyclopropyl-3-{[5-hydroxy-1-(4-hydroxybutyl)-1H-pyrrolo[3,2-b]pyridin-2-yl]methyl}-1,3-dihydro-2H-imidazo[4,5-c]pyridin-2-one] | – | – | 8460 nM | > 9840 nM | –
8 | O=c1n(Cc2cc3cnccc3n2CCCC(F)(F)F)c2cnccc2n1C1CC1 [Compound P21] | 0.247 nM | >405210 | – | – | –
9 | Cc1c(Cn2c(=O)n(C3CC3)c3ccncc32)n(CCCC(F)(F)F)c2ccncc12 [Compound P25] | 1.35 nM | >73885 | – | – | –
10 | CS(=O)(=O)CCCn1c(Cn2c(=O)n(CC(F)(F)F)c3ccncc32)cc2nc(Cl)ccc21 [Compound P52] | 0.84 nM | >119028 | – | – | –
11 | O=c1n(Cc2cc3nc(Cl)ccc3n2CCCCF)c2cnc(Cl)cc2n1C1CC1 [Compound P44] | – | – | 17.9 nM | – | 620
12 | O=c1n(Cc2cc3nc(Cl)ccc3n2CCCCF)c2cc(F)ccc2n1CC(F)(F)F [Compound P47] | 138 nM | >720 | – | – | –
13 | CC(C)CCn1c(Cn2c(=O)n(C3CC3)c3ccncc32)cc2nc(Cl)ccc21 [Compound P32] | 7.77 nM | >1286 | – | – | –
14 | CS(=O)(=O)CCCn1c(Cn2c(=O)n(C3CC3)c3ccncc32)cc2nc(Cl)ccc21 [Compound P33] | 5.76 nM | >17372 | – | – | –
15 | CS(=O)(=O)CCCn1c(Cn2c(=O)n(C3CC3)c3ccc(F)cc32)cc2nc(Cl)ccc21 [Compound P37] | 22.3 nM | >4479 | – | – | –
16 | N#CCCCn1c(Cn2c(=O)n(C3CC3)c3ccncc32)cc2nc(Cl)ccc21 [Compound P53] | 15.8 nM | >6232 | – | – | –
17 | O=c1n(Cc2c(I)c3cnccc3n2CCCC(F)(F)F)c2cnccc2n1C1CC1 [Compound P26] | 2.35 nM | 21638 | – | – | –
18 | CC(C)(C)C(=O)OCCCCn1c(Cn2c(=O)n(C3CC3)c3ccncc32)cc2nc(O)ccc21 [Compound P9, 4-{2-[(1-Cyclopropyl-2-oxo-1,2-dihydro-3H-imidazo[4,5-c]pyridin-3-yl)methyl]-5-hydroxy-1H-pyrrolo[3,2-b]pyridin-1-yl}butyl 2,2-dimethylpropanoate] | – | – | > 9840 nM | > 9840 nM | –
19 | O=c1n(Cc2cc3cc(Cl)ncc3n2CCCC(F)(F)F)c2cc(F)ccc2n1C1CC1 [Compound P16] | 39.8 nM | >2730 | – | – | –
20 | CC(C)CCn1c(Cn2c(=O)n(C3CC3)c3ccncc32)cc2cnccc21 [Compound P20] | 0.28 nM | 294002 | – | – | –
21 | CC(C)CCn1c(Cn2c(=O)n(C3CC3)c3ccc(F)cc32)cc2nc(Cl)ccc21 [Compound P38] | 32.8 nM | 1510 | – | – | –
22 | O=c1n(Cc2cc3cnccc3n2CCCC(F)(F)F)c2c(F)nccc2n1C1CC1 [Compound P24] | – | – | 0.17 nM | – | >589061

Row | SMILES | EC50 [1, 3] | SI CC50/EC50 ([1]; Table 2) | EC50 [1, 4] | CC50 at 3 days [2] | SI CC50/EC50 ([1]; Table 3)
23 | O=c1n(Cc2cc3ncccc3n2CCCCF)c2cnccc2n1C1CC1 [Compound P45] | 42.9 nM | >2332 | – | – | –
24 | CC(C)CCn1c(Cn2c(=O)n(C3CC3)c3ccncc32)cc2ncccc21 [Compound P3, 1-Cyclopropyl-3-{[1-(3-methylbutyl)-1H-pyrrolo[3,2-b]pyridin-2-yl]methyl}-1,3-dihydro-2H-imidazo[4,5-c]pyridin-2-one] | – | – | 62.9 nM | 68000 nM | –
25 | O=c1n(Cc2cc3nc(Cl)ccc3n2CCCCF)c2cnccc2n1C1CC1 [Compound P42, 3-((5-chloro-1-(4-fluorobutyl)-1H-pyrrolo[3,2-b]pyridin-2-yl)methyl)-1-cyclopropyl-1H-imidazo[4,5-c]pyridin-2(3H)-one] | – | 17031 | 2.84 nM | – | –
26 | O=c1n(Cc2cc3cc(Cl)ncc3n2CCCC(F)(F)F)c2cnccc2n1CC(F)(F)F [Compound P13] | 0.938 nM | >106591 | – | – | –
27 | O=c1n(Cc2cc3cnccc3n2CCCCF)c2cnccc2n1C1CC1 [Compound P19] | 0.536 nM | >186574 | – | – | –
28 | CS(=O)(=O)CCCn1c(Cn2c(=O)n(CC(F)(F)F)c3ccc(F)cc32)cc2cnccc21 [Compound P30] | 0.614 nM | >162986 | – | – | –
29 | O=c1n(Cc2cc3ccncc3n2CCCCO)c2cnccc2n1C1CC1 [Compound P4, 1-Cyclopropyl-3-{[1-(4-hydroxybutyl)-1H-pyrrolo[2,3-c]pyridin-2-yl]methyl}-1,3-dihydro-2H-imidazo[4,5-c]pyridin-2-one] | – | – | 129 nM | > 9840 nM | –
30 | O=c1n(Cc2cc3nc(Cl)ccc3n2CCCCO)c2cnccc2n1C1CC1 [Compound P2, 3-{[5-Chloro-1-(4-hydroxybutyl)-1H-pyrrolo[3,2-b]pyridin-2-yl]methyl}-1-cyclopropyl-1,3-dihydro-2H-imidazo[4,5-c]pyridin-2-one] | – | – | 15.6 nM | > 9840 nM | –
31 | CS(=O)(=O)CCCn1c(Cn2c(=O)n(C3CC3)c3ccncc32)cc2cnccc21 [Compound P18] | 0.98 nM | >102089 | – | – | –
32 | O=c1n(Cc2cc3cc(Cl)ncc3n2CCCCF)c2cnccc2n1C1CC1 [Compound P11, 3-((5-chloro-1-(4-fluorobutyl)-1H-pyrrolo[2,3-c]pyridin-2-yl)methyl)-1-cyclopropyl-1H-imidazo[4,5-c]pyridin-2(3H)-one] | – | >9387 | 5.33 nM | – | –
33 | CS(=O)(=O)CCCn1c(Cn2c(=O)n(C3COC3)c3ccncc32)cc2nc(Cl)ccc21 [Compound P36] | 6.81 nM | >14674 | – | – | –
34 | CC(C)CCn1c(Cn2c(=O)n(C3CC3)c3ccccc32)cc2nc(Cl)ccc21 [Compound P39] | 129 nM | >388 | – | – | –
35 | O=c1n(Cc2cc3cc(Cl)ncc3n2CCCC(F)(F)F)c2cnccc2n1C1CC1 [Compound P12] | 2.38 nM | >10526 | – | – | –
36 | O=c1n(Cc2c(F)c3cnccc3n2CCCC(F)(F)F)c2cnccc2n1C1CC1 [Compound P23] | 29.3 nM | >3416 | – | – | –
37 | O=c1n(Cc2cc3cc(Cl)ncc3n2CCCCF)c2cnccc2n1CC(F)(F)F [Compound P15] | 1.58 nM | 51626 | – | – | –
38 | COc1ccc2c(cc(Cn3c(=O)n(C4CC4)c4ccncc43)n2CCCCO)n1 [Compound P6, 1-Cyclopropyl-3-{[1-(4-hydroxybutyl)-5-methoxy-1H-pyrrolo[3,2-b]pyridin-2-yl]methyl}-1,3-dihydro-2H-imidazo[4,5-c]pyridin-2-one] | – | – | 220 nM | > 9840 nM | –
39 | O=c1n(Cc2cc3nc(C(F)(F)F)ccc3n2CCCCF)c2cnccc2n1C1CC1 [Compound P46] | 132 nM | >755 | – | – | –
40 | O=c1n(Cc2cc3nc(Cl)ccc3n2CCCC(F)(F)F)c2ccccc2n1C1CC1 [Compound P43] | 69.2 nM | 1291 | – | – | –
41 | CC(C)CCn1c(Cn2c(=O)n(C3CC3)c3ccncc32)cc2cccnc21 [Compound P10, 1-Cyclopropyl-3-{[1-(3-methylbutyl)-1H-pyrrolo[2,3-b]pyridin-2-yl]methyl}-1,3-dihydro-2H-imidazo[4,5-c]pyridin-2-one] | – | – | > 98400 nM | > 98400 nM | –
42 | O=c1n(Cc2cc3nc(Cl)ccc3n2CCCCF)c2cnccc2n1CC(F)(F)F [Compound P48] | 7.36 nM | 10490 | – | – | –
43 | O=c1n(Cc2cc3nc(Cl)ccc3n2CCCC(F)(F)F)c2cnccc2n1C1CC1 [Compound P40] | 2.7 nM | >37045 | – | – | –
44 | O=c1n(Cc2cc3nc(Cl)ccc3n2CCCC(F)(F)F)c2cnccc2n1CC(F)(F)F [Compound P49] | 2.1 nM | >34306 | – | – | –
